# From patent publication US20260306421A1, “SYSTEMS AND METHODS FOR TRANSDERMAN PATCH DELIVERY” (VITAMAX PATCH WHOLESALER LLC, priority 2022, published 2026)
# Experiments:
# [1] = Solubility of zinc chloride and zinc complexes (visual / HPLC); format: physicochemical
# Experimental: Accurate measurement of the solubility was then repeated for some of the solvent systems by HPLC. In the HPLC solubility studies, an excess of the test agents was loaded into 2 mL of each test solvent. The solutions were left stirring overnight at 32° C. […] The drug suspensions were then centrifuged, the supernatant diluted, and each sample concentration was measured using HPLC.
# [2] = Franz cell porcine skin permeation and deposition of zinc from solutions; format: in vitro ADME; parameters: elemental zinc skin deposition: unit not given here
# Experimental: Porcine skin permeation studies were performed to compare the permeation of zinc chloride and the zinc ethyl maltol complex. The permeation of zinc chloride vs zinc ethyl maltol from PG saturated solutions (zinc chloride and zinc ethyl maltol solutions in PG was 2.45 and 2.10 mg/mL, respectively) and permeation of zinc chloride from PG statured solution vs zinc ethyl maltol from PEG400 saturated solutions were investigated (zinc ethyl maltol in PEG400 100 mg/mL). In addition, the permeation of the zinc ethyl complex from PEG400 saturated solution and PEG400:PEG1000 (8:2% w/w) was compared. For the PEG mixture, the zinc ethyl maltol donor was prepared by dissolving 60 mg of the complex in 3 mL of methanol and 1 mL of 80% w/w PEG400:20% w/w PEG 1000 then added. The solution was left overnight to allow the evaporation of methanol.
# Permeation studies were conducted using previously validated Franz cell method based on the principles of the FDA, SUPAC-SS guidelines [FDA (CDER), 1997, Guidance for industry—SUPAC-SS Non-sterile Semisolid Dosage Form, Scale-up and post-approval changes: chemistry, manufacturing, and controls; in vitro release testing and in vivo bioequivalence documentation](FIG. 4). On the day of the experiment, the porcine skin was defrosted and either prepared as full-thickness sheets but removing the fat or dermatome to a 1 mm thickness (Nouvag, AG). The tissue was cut into 34 mm circles to allow an exposure area of 2.19±0.21 cm^2 and positioned between donor and receiver compartments of Franz diffusion cells. Each piece of skin was sealed between the two compartments using parafilm (Bemis Company, Neenah, WI). A 12 mm magnetic stir bar was placed into the receiver compartment of each Franz cell. The receiver compartment was loaded with 50 mM phosphate-buffered saline (pH 7.4). The cell sealing was verified by Franz cell inversion (6 times) and monitoring solvent back diffusion. The temperature of the Franz diffusion was set at 37° C. in a water bath to reach a skin temperature of 32° C. After 1 h equilibration at 37° C. in the water bath, 1 mL of receiver fluid was withdrawn (time point=0 min), and a fresh receiver solution was replaced into the cell to keep the volume consistent. Each formulation (1 mL) was applied in the donor compartment that was then covered with parafilm to avoid evaporation. After 24 h, the receiver fluid was collected and analysed by HPLC.
# At the end of the permeation studies, the Franz cells were dismantled. The donor solutions were collected from each cell and transferred into 5-mL glass bottles containing 2 mL of PDCA as extraction fluid. This step was followed by wiping the skin surface and the donor compartment with two wet (wetted with extraction fluid) and then two dry cotton buds. The skin's permeation area was then cut into small pieces by scalpels and placed into a 5 mL glass bottle containing 4 mL of extraction fluid. All skin samples were kept at the bench with extraction fluid for 1 hour. This step was followed by separating each vial's content (cut skin and extraction fluid) into 2 mL Eppendorf tubes that were then loaded in TissuLyser machine for 20 minutes. Samples were then centrifuged for 15 minutes at 13,000 rpm. The content of each Eppendorf tube was filtered using 0.45 µm syringe filters, collected, and analysed by HPLC.
# [3] = Zinc ethyl maltol reservoir co-solvent solubility screening; format: physicochemical; conditions: for Solubility in PEG400:PEG1000: 3 mL methanol
# Experimental: Pre-formulation studies were completed to optimise the solubility of zinc ethyl maltol using a variety of co-solvents that could be applied to the skin, such as Transcutol and ethanol. Polymers such as PEG 1000, Natrsol M250, and PVP were used to aid the solubilisation process. The compatibility of the complex with the solvents was evaluated by examining the clarity of the mixture. Following the optimisation of the complex solubility, the reservoir patch was developed using the backing layer, drug in solution, and liner release layer. The backing used was 3M™ Scotchpak™ Polyester Backing Film Laminate 9730. Different liner release membranes were investigated including, regenerated cellulose (12-14 k molecular weight cut-off Medical International UK), nylon (0.20 μm, Whatman, UK), and CoTran 9728 (3M, Germany). A 200 μL aliquot of zinc ethyl maltol complex in solution was applied on the liner release membrane, then covered by the backing layer and all layers thermally sealed (HeatPress machine HP230B).
# The solution left to evaporate overnight to form a supersaturated solution (Table 4). This solution was then loaded into the reservoir patch.
# [4] = Zinc ethyl maltol adhesive suitability (solubility/compatibility) screening; format: physicochemical
# Experimental: Pre-formulation studies were performed to determine the compatibility of zinc ethyl maltol with a variety of adhesives that could be used to manufacture a transdermal patch (Table 2). The compatibility of the zinc complexes with the patch excipients was evaluated by examining the clarity of the mixture upon mixing. […] Following patch optimisation, the optimised drug-adhesive solutions were cast in 10×10 cm^2 trays made of the patch backing (3M™ Scotchpak™ Polyester Backing Film Laminate 9730, 3M, Germany). An adequate volume of the adhesive was applied to achieve a target coating level of 8 mg/cm^2 (equivalent to 80 g/m^2). Following complete drying of the solvents, the adhesive layer was covered by an M3 Release liner (SCOTCHPAK 9755), compressed, and then cut using a 34 mm circular manual die cutter (SCP Super Cutting Press).
# [5] = Franz cell porcine skin permeation and deposition of zinc from solutions; format: in vitro ADME; conditions: solution in PEG (6 mg/mL)
# [6] = Solubility of iron chloride hexahydrate and iron complexes (visual / assayed); format: physicochemical; conditions: visual (*)
# Experimental: Due to the high number of test samples (6 complexes plus the starting material, iron chloride hexahydrate) a visual solubility screen was used to screen the solubility in a range of solvents. […] Quantitative determination was performed by either incubating the complex in excess in the solvent using a shaking 37° C. water bath for 48 h or sonicating it for 2 hours at 40° C. or leaving overnight on a 50° C. hot plate. Once incubation period was completed, the exact solubility in a particular solvent was assayed (using the iron assay) after centrifugation (i.e. assay iron content in the supernatant using the Ferrozine® assay).
# [7] = Iron adhesive patch skin permeation and deposition; format: in vitro ADME, porcine; conditions: t-test p value, 0.5
# Experimental: To perform the skin permeation studies, dermatomed skin (1 mm) was glued onto the receiver compartment of the Franz cell that contained 80:20 PG:water. A zero hour sample was taken from the receiver fluid, the patches were placed on top of the skin and held in place by a small weight (8.75 g). The patches that were tested were A2, A3, A4 (Table 16) as well as the existing commercial iron transdermal patch. After 24 hours, the receiver fluid was assayed using the quantitative iron assay and a compatible calibration in the same medium (80:20 PG:water) was used. The skin deposition was determined by removing the dermatomed skin from the donor compartment when the 24 h was completed, chopping into smaller pieces using scissors and incubating with the extraction fluid, ethanol. The samples were then transferred to Eppendorf tubes containing one stainless steel 5 mm bead and loaded into the TissuLyser II (Qiagen, Germany) for 30 min 30 Hz. The samples were centrifuged (5 min at 13,000 rpm) and supernatant assayed for iron content.
# [8] = Iron complex adhesive compatibility and loading screen; format: physicochemical
# Experimental: Pre-formulation studies were performed to determine the compatibility of the iron complexes with a range of transdermal patch adhesives (Table 15).
# The compatibility of the complexes with the patch adhesives was assessed by mixing and visually checking the clarity of the mixture.
# In the adhesives that were computable with the iron complexes the maximum drug loading of the complexes in the adhesive following solvent evaporation was determined. This was achieved by mixing the drug, adhesive and co-solvents until a clear solution was obtained at different drug:adhesive ratios and placing few drops of the mixture onto the patch backing sheet, leaving it to dry for 3-4 h, and examining the formed film on the surface of the backings for evidence of drug crystals.
# Following complete drying of the solvents, the adhesive layer was covered by a release liner, compressed, and then cut using 34 mm circular manual die cutter (FIG. 23).
compound,measurement,setting,value
"CCc1occc(=O)c1[O][Zn][O]c1c(CC)occc1=O [Zinc Ethyl Maltol, zinc ethyl maltol]",Elemental zinc solubility evaluated by HPLC,[1]; solvent PEG400,6600 µg/mL
same,Elemental zinc solubility evaluated by HPLC,[1]; solvent PG,2100 µg/mL
same,Elemental zinc solubility evaluated by HPLC,[1]; solvent Transcutol,6000 µg/mL
same,transdermal permeation of elemental zinc,"[2]; 1 mL PG solution, 24 h",4.85 µg/cm^2
same,permeation of elemental zinc,[2]; solution in PG ([…]),41 μg/cm^2
same,daily dose delivered by the solution,"[2]; solution, extrapolated",approximately 2 mg
same,elemental zinc passed through the skin,[2]; supersaturated solution (conclusions),237.93 μg/cm^2
same,elemental zinc permeated through the skin,"[2]; supersaturated solution in PEG400:PEG1000 (8% w/w:2% w/w), 24 h",238 µg/cm^2
same,elemental zinc skin deposition,"[2]; vehicle PEG400, 24 h",44.84
same,transdermal permeation of elemental zinc,"[2]; vehicle PEG400, 24 h",174 µg/cm^2
same,transdermal permeation compared to zinc chloride,[2]; zinc ethyl maltol in PEG400 vs zinc chloride in PG,4.8 fold
same,Solubility in PEG400:PEG1000,"[3]; 60 mg, 1 mL PEG400:PEG1000 (2% w/w:8% w/w)",Not soluble
same,Solubility in PEG400:PEG1000,"[3]; 60 mg, 1 mL PEG400:PEG1000 (6% w/w:4% w/w)",Not soluble
same,Solubility in PEG400:PEG1000,"[3]; 60 mg, 1 mL PEG400:PEG1000 (8% w/w:2% w/w)",Soluble
same,Solubility in PEG400:PEG1000,"[3]; 80 mg, 1 mL PEG400:PEG1000 (6% w/w:4% w/w)",Not soluble
same,Solubility in PEG400:PEG1000,"[3]; 80 mg, 1 mL PEG400:PEG1000 (8% w/w:2% w/w)",Not soluble
same,Solubility in PEG400:PEG1000,"[3]; 100 mg, 1 mL PEG400:PEG1000 (6% w/w:4% w/w)",Not soluble
same,Solubility in PEG400:PEG1000,"[3]; 100 mg, 1 mL PEG400:PEG1000 (8% w/w:2% w/w)",Not soluble
same,Solubility in PEG400:PEG1000,"[3]; 120 mg, 1 mL PEG400:PEG1000 (6% w/w:4% w/w)",Not soluble
same,Solubility in PEG400:PEG1000,"[3]; 120 mg, 1 mL PEG400:PEG1000 (8% w/w:2% w/w)",Not soluble
same,maximum solubility of zinc ethyl maltol complex,[3]; PEG400,30000 µg/mL
same,elemental zinc achieved in supersaturated solution,[3]; supersaturated solution based on PEG400/PG6000,28.8 mg/mL
same,Solubility in DURO-TAK 9301,"[4]; drug loading 5%, no Transcutol",Not Soluble
same,Solubility in DURO-TAK 9301,"[4]; drug loading 7.4%, Transcutol 12.5 mg",Soluble
same,Solubility in DURO-TAK 9301,"[4]; drug loading 7.5%, no Transcutol",Not Soluble
same,Solubility in DURO-TAK 9301,"[4]; drug loading 10%, no Transcutol",Not Soluble
same,Solubility in DURO-TAK 9301,"[4]; drug loading […], no Transcutol",Not Soluble
same,permeation of elemental zinc,[5],173.6 μg/cm^2
"O=c1cc(CO)occ1[O-].O=c1cc(CO)occ1[O-].O=c1cc(CO)occ1[O-].[Fe+3] [Iron kojic, iron kojic acid]",Solubility of complex (visual),[6]; Chloroform,<6 mg/mL Iron kojic*
same,Solubility of complex (visual),[6]; Ethyl acetate,<6 mg/mL Iron kojic*
same,Solubility of complex (visual),[6]; Glycerol,<6 mg/mL Iron kojic*
same,Solubility of complex (visual),[6]; Hexane,<6 mg/mL Iron kojic*
same,Solubility of complex (visual),[6]; Methanol,≥18 mg/mL Iron kojic*
same,Solubility of complex (visual),[6]; Oleic acid,<6 mg/mL Iron kojic*
same,Solubility of complex (visual),[6]; PEG400,<6 mg/mL Iron kojic*
same,Solubility of complex (visual),[6]; PG,≥8 mg/mL Iron kojic*
same,Solubility of complex (visual),[6]; Propanol,<6 mg/mL Iron kojic*
same,Solubility of complex (visual),[6]; Transcutul,≥ 8 mg/mL Iron kojic*
same,Solubility of complex (visual),[6]; Triaceten,<6 mg/mL Iron kojic*
same,deposition compared to existing commercial iron transdermal patch,[7],no significant difference
same,compatibility with adhesives,[8],only compatible with DURO-TAK 9301
same,Solubility in DURO-TAK 9301 patch,"[8]; drug loading 4%, 2 mg PG",Clear
same,Solubility in DURO-TAK 9301 patch,"[8]; drug loading 4%, no permeation enhancer",Clear
same,Solubility in DURO-TAK 9301 patch,"[8]; drug loading 7%, 8 mg Maltol",Precipitated
same,Solubility in DURO-TAK 9301 patch,"[8]; drug loading 7.5%, 4 mg PG",Precipitated
same,Solubility in DURO-TAK 9301 patch,"[8]; drug loading 8%, no permeation enhancer",Precipitated
same,Solubility in DURO-TAK 9301 patch,"[8]; drug loading 10%, 5.5 mg PG",Precipitated
same,Solubility in DURO-TAK 9301 patch,"[8]; drug loading 10%, 5.5 mg Transcutol",Precipitated
same,Solubility in DURO-TAK 9301 patch,"[8]; drug loading 10%, no permeation enhancer",Precipitated
same,(maximum) complex loading achieved in adhesive,[8]; methanol stock solution 10 mg/mL,4%
same,complex loading achieved in adhesive patch,[8]; methanol stock solution 18 mg/mL,8.5%
